Measurements reported in PubChem BioAssay (NCI).
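48-hour exposure; five concentrations; linearly interpolated endpoints. TGI denotes the concentration required for complete inhibition of growth.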

Legend:
Assay in all cases: DTP human tumour cell line panel, 48 h
[1] = test system: RXF 393 renal
[2] = test system: MALME-3M melanoma
[3] = test system: SK-MEL-28 melanoma
[4] = test system: NCI-H23 lung
[5] = test system: COLO 205 colon
[6] = test system: SF-295 CNS
[7] = test system: OVCAR-5 ovarian
[8] = test system: HCT-15 colon
[9] = test system: TK-10 renal
[10] = test system: ACHN renal

SMILES | TGI [1] [µM] | TGI [2] [µM] | TGI [3] [µM] | TGI [4] [µM] | TGI [5] [µM] | TGI [6] [µM] | TGI [7] [µM] | TGI [8] [µM] | TGI [9] [µM] | TGI [10] [µM]
C/C(=N\N=C(N)N)C(CN1CCOCC1)C(c1ccccc1)c1c(O)c2ccccc2oc1=O (stereo not given) | > 100 | > 100 | > 100 | > 100 | > 100 | > 100 | > 100 | > 100 | > 100 | > 100
CCSC12OC3(CCCCCN3C1=O)C1C(=O)N(c3ccccc3)C(=O)C12 (stereo not given) | > 100 | > 100 | > 100 | > 100 | > 100 | > 100 | > 100 | > 100 | > 100 | > 100
CCC[N+](C)(C)CCCNC(=O)c1c(O)c2ccccc2[nH]c1=O | > 100 | > 100 | > 100 | > 100 | > 100 | > 100 | > 100 | > 100 | > 100 | > 100
N=C(N)SCc1nc(-c2ccc(Cl)cc2)no1 | 25 | 34.6 | 33 | > 100 | 38.3 | > 100 | 27.8 | 55.9 | 40.8 | 27.5
N=C1C=CC(=C(c2ccc(N)cc2)c2ccc(N)cc2)C=C1 | 23 | 13.3 | 26.1 | 16.3 | 5.83 | 21.4 | 50.3 | 53.3 | 28.1 | 31.2
N#CC1=C(O)NC(O)=C(C#N)C1c1c(Cl)cccc1Cl | 28.7 | > 100 | > 100 | > 100 | > 100 | > 100 | 98.5 | 51.9 | > 100 | > 100
CCOc1ccccc1N=NC1C(=O)N(C(=O)CC(=O)Nc2ccccc2C)N=C1C (stereo not given) | 89.4 | > 100 | > 100 | > 100 | > 100 | 36 | > 100 | > 100 | > 100 | > 100
CSc1ccc(N2C(=O)C3c4[nH]c5ccccc5c4C4CCC(C(C)(C)C)CC4C3C2=O)cc1 (stereo not given) | 47.1 | 42.9 | 35.1 | 31.9 | 25.2 | 33.4 | > 100 | > 100 | 40.5 | 29.1
COC(=O)C1=C(C)NC(C)=C(C(=O)OC)C1c1cccc(/[N+]([O-])=C/c2ccccc2)c1 | 30.3 | 29.9 | 31.6 | > 100 | 30.5 | > 100 | > 100 | 44.9 | > 100 | 31.6
C1=CC2C(C3CN(c4ccccc4)N=C13)C1C3C4C=CC21C=CC43 (stereo not given) | > 100 | > 100 | > 100 | > 100 | > 100 | > 100 | > 100 | > 100 | > 100 | > 100
[N-]=[N+]=C(C(=O)CN1CCCC1=O)S(=O)(=O)c1ccccc1 | > 100 | > 100 | > 100 | > 100 | > 100 | > 100 | > 100 | > 100 | > 100 | > 100
NS(=O)(=O)c1ccc(-c2ccc([As](=O)(O)O)cc2)cc1 | > 100 | > 100 | > 100 | > 100 | > 100 | > 100 | > 100 | > 100 | > 100 | > 100
COC(=O)/C1=C/C=C\C[C@@]2(C)CC(c3ccoc3)OC(=O)[C@@H]2CC[C@H]1C (stereo not given in full) | > 25 | > 25 | > 25 | > 25 | > 25 | > 25 | > 25 | > 25 | > 25 | > 25
O=C(CC(=O)N1N=C(c2ccccc2)C(N=Nc2ccc(S(=O)(=O)CCOS(=O)(=O)O)cc2)C1=O)Nc1ccc(Cl)cc1 (stereo not given) | > 100 | > 100 | > 100 | > 100 | > 100 | > 100 | > 100 | > 100 | > 100 | > 100
CCCN=C1NC(C)=CSC(Nc2ccccc2)=C1C#N | > 100 | > 100 | > 100 | > 100 | > 100 | > 100 | > 100 | > 100 | > 100 | > 100
CC1(C)CCCCCC(O)C(O)CCC(C)(C)C1=O (stereo not given) | > 100 | > 100 | > 100 | > 100 | > 100 | > 100 | > 100 | > 100 | > 100 | > 100
Cc1cn(C2CC(O)C(Cn3nncc3Cn3nc(Br)c(=O)[nH]c3=O)O2)c(=O)[nH]c1=O (stereo not given) | > 100 | > 100 | > 100 | > 100 | > 100 | > 100 | > 100 | > 100 | > 100 | > 100
NC(=Nc1ccccc1)N/N=C/c1c[nH]c2ccccc12 | 0.701 | 3.74 | 8.77 | 2.93 | 0.67 | 0.423 | 15 | 10.1 | 18.9 | 16.1
CCCCCc1cc2cc3c(c(O)c2c(=O)[nH]1)C1(CCC3)C(=O)c2c(O)ccc(O)c2C1=O | > 100 | > 100 | > 100 | > 100 | > 100 | > 100 | > 100 | > 100 | > 100 | > 100
